Here are results for seven compounds from US20240245694A1, “Tricyclic Compounds and their Uses” (Novartis AG, priority 2022, published 2024).

Bounds are passed on as bounds.

One assay deals with SW48 cells. The assay is described as follows: Proliferation assay SW48 (CellTiterGlo, 96 hours). Conditions: Homo sapiens. Type of assay: cell-based. The method in brief: (§1)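 Cells in RPMI-1640/10% FCS were seeded overnight (SW48 2'000, DLD1-WRN-KO 1'500 cells/well), then exposed to eight 3-fold compound dilutions at 0.1% DMSO. ATP luminescence relative to a day-0 plate gives % growth (0% stasis, −100% complete kill). GI50 is the geometric mean of ≥2 independent replicates.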

Assay [1] concerns the target WRN helicase (core helicase motif aa N517-P1238) (Homo sapiens (Human), UniProt Q14191). The assay is described as follows: WRN ATPase assay (ADP-Glo), DNA dependent ATP hydrolysis. Type of assay: biochemical. As to conditions: 3 hours pre-incubation, 300 micromolar ATP, FLAP26 ssDNA; geometric means of at least 2 determinations. The method in brief: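 Uses the WRN core helicase (aa N517-P1238) with single-strand 45-mer FLAP26 DNA in Tris pH 7.5, MgCl2, NaCl, BSA and pluronic buffer. Compound was pre-incubated 3 h with enzyme and ATP; reaction then run with 10 nM WRN, 0.2 nM FLAP26 and 300 µM ATP for 30 min at room temperature. ADP quantified by ADP-Glo luminescence; IC50 from duplicate 4-parameter fits, geometric mean of ≥2 runs.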
(In general: ADP-Glo first removes unused ATP, then detects ADP through luciferase.)

In another assay the test system is DLD1-WRN-KO cells. Nature of the assay: Proliferation assay DLD1-WRN-KO (CellTiterGlo, 96 hours), off-target effects. Type of assay: cell-based. Conditions: Homo sapiens. An outline of the steps: as §1
(Cellular ATP, detected with luciferase, serves as a proxy for viable cell number.)

In general, GI50 refers to the concentration giving 50% growth inhibition. A low value points to greater sensitivity of the cells. A word on the IC50: it is the concentration that inhibits the measured activity by half. Read a high IC50 as lower potency.

WRN helicase (core helicase motif aa N517-P1238), sequence (Q14191 517-1238): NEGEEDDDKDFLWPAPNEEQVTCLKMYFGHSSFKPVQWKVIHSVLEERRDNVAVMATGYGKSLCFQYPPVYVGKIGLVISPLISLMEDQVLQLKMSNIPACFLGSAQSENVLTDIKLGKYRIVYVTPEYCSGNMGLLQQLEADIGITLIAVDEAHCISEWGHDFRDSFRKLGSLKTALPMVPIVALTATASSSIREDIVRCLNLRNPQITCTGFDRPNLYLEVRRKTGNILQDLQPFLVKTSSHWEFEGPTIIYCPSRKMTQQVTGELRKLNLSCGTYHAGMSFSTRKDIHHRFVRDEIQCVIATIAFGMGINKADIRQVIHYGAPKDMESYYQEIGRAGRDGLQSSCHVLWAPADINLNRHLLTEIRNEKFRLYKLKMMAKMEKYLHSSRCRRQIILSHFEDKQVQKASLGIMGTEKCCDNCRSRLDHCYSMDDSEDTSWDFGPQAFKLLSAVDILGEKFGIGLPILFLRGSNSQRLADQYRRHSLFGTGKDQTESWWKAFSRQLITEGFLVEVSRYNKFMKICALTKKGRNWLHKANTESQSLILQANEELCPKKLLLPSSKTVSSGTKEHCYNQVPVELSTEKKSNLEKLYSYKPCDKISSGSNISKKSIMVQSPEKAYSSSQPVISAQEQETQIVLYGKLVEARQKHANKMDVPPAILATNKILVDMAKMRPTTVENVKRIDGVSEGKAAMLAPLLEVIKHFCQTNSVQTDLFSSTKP

For `Cc1ncnc(C(=O)N2CCN(c3c4n(c5nc(C6=CCOCC6)nn5c3=O)[C@@H](C(=O)Nc3ccc(C(F)(F)F)cc3Cl)C[C@@H]4C)C[C@H]2C)c1O` [Example 18D, (7S,9R)—N-(2-chloro-4-(trifluoromethyl)phenyl)-2-(3,6-dihydro-2H-pyran-4-yl)-6-((R)-4-(5-hydroxy-6-methylpyrimidine-4-carbonyl)-3-methylpiperazin-1-yl)-7-methyl-5-oxo-5,7,8,9-tetrahydropyrrolo[1,2-c][1,2,4]triazolo[1,5-a]pyrimidine-9-carboxamide], the results for the GI50 in the assay with SW48 cells and in the assay with DLD1-WRN-KO cells were 500 nM and over 10000 nM, respectively. For the same compound, in assay [1], the 50% inhibitory concentration (IC50) stood at 100 nM.
`Cc1cc(C(F)(F)F)ccc1NC(=O)[C@H]1CCc2c(N3CCN(C(=O)c4nccc(Cl)c4O)CC3)c(=O)n3nc(C4=CCOCC4)nc3n21` [Example 19A, (R)-6-(4-(4-chloro-3-hydroxypicolinoyl)piperazin-1-yl)-2-(3,6-dihydro-2H-pyran-4-yl)-N-(2-methyl-4-(trifluoromethyl)phenyl)-5-oxo-5,7,8,9-tetrahydropyrrolo[1,2-c][1,2,4]triazolo[1,5-a]pyrimidine-9-carboxamide]: the results for the GI50 in the assay with SW48 cells and in the assay on DLD1-WRN-KO cells were 200 nM and over 10000 nM, respectively. It took 40 nM to reach half-maximal inhibition in assay [1] (IC50).
For the compound `Cc1cc(C(F)(F)F)ccc1NC(=O)[C@H]1CCc2c(N3CCN(C(=O)c4ncccc4O)CC3)c(=O)n3nc(C4=CCOCC4)nc3n21` [Example 20A, (R)-2-(3,6-dihydro-2H-pyran-4-yl)-6-(4-(3-hydroxypicolinoyl)piperazin-1-yl)-N-(2-methyl-4-(trifluoromethyl)phenyl)-5-oxo-5,7,8,9-tetrahydropyrrolo[1,2-c][1,2,4]triazolo[1,5-a]pyrimidine-9-carboxamide], the concentration for 50% growth inhibition (GI50) with SW48 cells is 300 nM; in the assay on DLD1-WRN-KO cells it was over 10000 nM. The same compound returned an IC50 in assay [1] of 90 nM.
Turning to `Cc1cc(C(F)(F)F)ccc1NC(=O)[C@@H]1CCc2c(N3CCN(C(=O)c4ncccc4O)CC3)c(=O)n3nc(C4=CCOCC4)nc3n21` [Example 20B, (S)-2-(3,6-dihydro-2H-pyran-4-yl)-6-(4-(3-hydroxypicolinoyl)piperazin-1-yl)-N-(2-methyl-4-(trifluoromethyl)phenyl)-5-oxo-5,7,8,9-tetrahydropyrrolo[1,2-c][1,2,4]triazolo[1,5-a]pyrimidine-9-carboxamide], the GI50 in the assay on SW48 cells and with DLD1-WRN-KO cells was over 10000 nM in each case. In assay [1], the IC50 was over 10000 nM.
In the case of `Cc1ncnc(C(=O)N2CCN(c3c4n(c5nc(C6=CCOCC6)nn5c3=O)[C@@H](C(=O)Nc3ccc(C(F)(F)F)cc3Cl)C[C@@H]4C)[C@H]3CC[C@@H]32)c1O` [Example 21C, (7S,9R)—N-(2-chloro-4-(trifluoromethyl)phenyl)-2-(3,6-dihydro-2H-pyran-4-yl)-6-((1S,6S)-5-(5-hydroxy-6-methylpyrimidine-4-carbonyl)-2,5-diazabicyclo[4.2.0]octan-2-yl)-7-methyl-5-oxo-5,7,8,9-tetrahydropyrrolo[1,2-c][1,2,4]triazolo[1,5-a]pyrimidine-9-carboxamide], the GI50 is 10 nM with SW48 cells and over 10000 nM in the assay with DLD1-WRN-KO cells. In assay [1], this compound had an IC50 of 40 nM.
The matching figures for `O=C(Nc1ccc(C(F)(F)F)cc1)[C@H]1CCc2c(N3CCN(C(=O)c4ncccc4O)CC3)c(=O)n3nc(C4=CCOCC4)nc3n21` [Example 23A, (R)-2-(3,6-dihydro-2H-pyran-4-yl)-6-(4-(3-hydroxypicolinoyl)piperazin-1-yl)-5-oxo-N-(4-(trifluoromethyl)phenyl)-5,7,8,9-tetrahydropyrrolo[1,2-c][1,2,4]triazolo[1,5-a]pyrimidine-9-carboxamide]: 200 nM, over 10000 nM and 50 nM.
Take `O=C(Nc1ccc(C(F)(F)F)cc1)[C@@H]1CCc2c(N3CCN(C(=O)c4ncccc4O)CC3)c(=O)n3nc(C4=CCOCC4)nc3n21` [Example 23B, (S)-2-(3,6-dihydro-2H-pyran-4-yl)-6-(4-(3-hydroxypicolinoyl)piperazin-1-yl)-5-oxo-N-(4-(trifluoromethyl)phenyl)-5,7,8,9-tetrahydropyrrolo[1,2-c][1,2,4]triazolo[1,5-a]pyrimidine-9-carboxamide]: the 50% growth inhibitory concentration (GI50) in the assay with SW48 cells and in the assay with DLD1-WRN-KO cells was over 10000 nM throughout. The compound further gave an IC50 in assay [1] of 69000 nM.
